A short description of data set [1]: UV–Vis absorption and fluorescence spectra in DMSO. The format is physicochemical. As to conditions: for λmax: UV–Vis absorption in DMSO, Q-band, recorded from 300 to 800 nm; for λem: fluorescence emission in DMSO, Hitachi F-4500, 2.0 µM, excitation at approximately 668 nm; for Stokes Shift: in DMSO. The protocol: (§1) The UV–Vis absorption spectra and fluorescence spectra of the synthesized conjugates of Pyro-MonoRGD, Pyro-DiRGD, Pyro-TriRGD, and free Pyro were measured in DMSO. Absorption spectra were recorded from 300 to 800 nm. Fluorescence emission and excitation spectra were recorded from 550 to 800 nm upon excitation at approximately 668 nm and emission at 672–673 nm using a Hitachi model F-4500 FL spectrophotometer (Tokyo, Japan). The singlet oxygen quantum yields (ΦΔ) of the conjugates were measured in DMSO using DPBF as the quencher and Pyro as the reference.

Data set [2] in a line: Singlet oxygen quantum yield in DMSO. It is filed as physicochemical. As to conditions: DPBF as the quencher and Pyro as the reference. The method, then: as §1
The conditions of data set [3]: cited from earlier work. The source says:
(§2) Pyro is a very promising photosensitizer with ideal photoactivity properties, including a high extinction coefficient (3.79 × 10^4 L mol^−1 cm^−1) and a high singlet oxygen quantum yield (over 50%). […] Solving the tumor enrichment problem is very important for its clinical application. Here, to further increase the affinity of RGD peptide-coupled Pyro conjugates to the receptor αvβ3 integrin, we synthesized multimeric RGD-coupled Pyro conjugates to increase the affinity via multivalent and cluster effects, thereby improving the upt ...

The next data set deals with tumors in a mouse model. Conditions: general statement on Pyro; no reference given at the statement; cited from earlier work.
Description: as §2

The target in data set [4] is human isolated αvβ3 integrin receptors (ITGAV&ITGB3 heterodimer) (Homo sapiens, UniProt P05106+P06756). As to the kind of experiment: Receptor binding assay: competitive inhibition of biotinylated vitronectin binding to αvβ3 integrin. As to conditions: for IC50: biotinylated vitronectin 2.0 μg/mL, integrin 2.0 μg/mL in PBS pH 7.4, 4 °C overnight, test compounds 10^−3 to 10^−11 M, 3 h, 37 °C shaker, streptavidin–HRP/TMB, absorbance 450 nm, nonlinear regression GraphPad Prism 5.0, means ± SD of triplicate determinations. The method, then:
Human integrin αvβ3 (ITGAV&ITGB3) heterodimer protein was diluted to 2.0 μg/mL in PBS buffer (pH 7.4) and was then added to a 96-well plate (100 μL/well) and incubated overnight at 4 °C. The plate was blocked with 10% milk solution for an additional 2 h in a 37 °C shaker, followed by a 3 h incubation in the 37 °C shaker with various concentrations (10^−3 to 10^−11 M) of test compounds in the presence of biotinylated vitronectin (2.0 μg/mL). After washing, the plates were incubated for 1 h in the 37 °C shaker with streptavidin–HRP and then washed again, followed by 30 min of incubation with 100 μL/well TMB single-component substrate solution before stopping the reaction with the addition of 100 μL/well 2.0 N H2SO4. The absorbance at 450 nm was read on a microplate reader. Each data point represents the average of the triplicate wells, and data analysis was performed using nonlinear regression analysis with GraphPad Prism 5.0 software (GraphPad Software, Inc., San Diego, CA, USA.).

Data set [5] has as its system U87-MG tumor. It is filed as in vivo, Balb/c nude mice; human U87-MG cells. The source says: To examine the tumor enrichment of these conjugates in vivo, we prepared a xenograft tumor model by subcutaneously inoculating mice with U87-MG tumor cells ([…]) on the axilla. U87-MG cells have high expression levels of the αvβ3 integrin receptor. When the tumors grew to approximately 200 mm^3 in volume, the conjugates (50 nmol per mouse) were intravenously injected into the mice via the tail vein. The fluorescence signal and intensity distribution were continuously monitored using an in vivo fluorescence imaging system (IVIS Lumina II, Xenogen, Alameda, CA, USA). […] However, relatively weak fluorescence signals in the tumor site could be detected. […] The increased water hydrophilicity of the divalent and trivalent conjugates may contribute to the reduction in the liver accumulation.
Human U87-MG cells (4 × 10^6 cells/mouse) were subcutaneously inoculated on the axilla of female Balb/c nude mice. […] In vivo fluorescence analysis was performed before and after the injection at various time points using the IVIS Lumina imaging system (IVIS Lumina II, Xenogen, USA) with a Cy5.5 filter (excitation: 615–665 nm, emission: 695–770 nm). Alternatively, the mice were euthanized at 2 h postinjection, and major organs, including the heart, liver, spleen, lungs, kidneys, and muscles, as well as the tumor, were collected; fluorescence images were then acquired.

Data set [6] deals with U87-MG tumor. The format is in vivo, Balb/c nude mice; human U87-MG cells. Conditions: 50 nmol/mouse i.v.; mice euthanized 2 h postinjection; vs the other two conjugates; triplicates. The protocol:
To further verify the tumor targeting ability of these conjugates, the mice were euthanized 2 h postinjection, and their organs were collected for imaging. As shown in Figure 3B (heart, liver, spleen, lungs, and tumor from left to right), when the valence of the conjugates increased, the fluorescence signal in the tumor region increased.
Human U87-MG cells (4 × 10^6 cells/mouse) were subcutaneously inoculated on the axilla of female Balb/c nude mice. When the tumors grew to 200 mm^3, the mice were divided into three groups with each group containing three mice. The mice were then intravenously injected with 50 nmol/mouse of Pyro-MonoRGD, Pyro-DiRGD, and Pyro-TriRGD, respectively. In vivo fluorescence analysis was performed before and after the injection at various time points using the IVIS Lumina imaging system (IVIS Lumina II, Xenogen, USA) with a Cy5.5 filter (excitation: 615–665 nm, emission: 695–770 nm). Alternatively, the mice were euthanized at 2 h postinjection, and major organs, including the heart, liver, spleen, lungs, kidneys, and muscles, as well as the tumor, were collected; fluorescence images were then acquired.

The subject of a further data set is αvβ3 integrin receptor. Conditions: compared with antibody molecules; no reference given at the statement; cited from earlier work. The source says: However, compared with antibody molecules, small molecule ligands have a much weaker affinity to their receptors, which makes their tumor enrichment not always ideal. In our former work, we coupled a very promising photosensitizer, pyropheophorbide-a (Pyro), which has ideal photosensitizer properties, with a small molecule tumor homing ligand—cyclo(-RGDfK-)—to prepare a tumor-targeted conjugate. The cyclic peptide cyclo(-RGDfK-), which contains a conformationally restrained RGD sequence, has been often used for targeting tumor imaging and/or therapeutic agents as a high affinity ligand ...

For the compound `C=Cc1c(C)c2cc3nc(c4c5[nH]c(cc6nc(cc1[nH]2)C(C)=C6CC)c(C)c5C(=O)C4)[C@@H](CCC(=O)O)[C@@H]3C` [Pyro, pyropheophorbide-a, reference compound], in data set [1], the λmax worked out at 668 nm, the λem was 673 nm and the “Stokes Shift” value is on record as 5 nm. Also, in data set [2], the “singlet oxygen quantum yield ΦΔ” value is recorded as 0.52. For the same compound, in data set [3], the extinction coefficient was 37900 L/mol/cm and the “singlet oxygen quantum yield” value is “over 50%”. The tumor localization ability entry in the data set with tumors in a mouse model is “very limited tumor localization ability”.
For `C=Cc1c(C)c2cc3nc(c4c5[nH]c(cc6nc(cc1[nH]2)C(C)=C6CC)c(C)c5C(=O)C4)[C@@H](CCC(=O)NC(COCCC(=O)NCCCOCCOCCOCCCNC(=O)C[C@@H]1NC(=O)[C@@H](Cc2ccccc2)NC(=O)[C@H](CC(=O)O)NC(=O)CNC(=O)[C@H](CCCNC(=N)N)NC1=O)COCCC(=O)NCCCOCCOCCOCCCNC(=O)C[C@@H]1NC(=O)[C@@H](Cc2ccccc2)NC(=O)[C@H](CC(=O)O)NC(=O)CNC(=O)[C@H](CCCNC(=N)N)NC1=O)[C@@H]3C` (stereo partly drawn) [Pyro-DiRGD], the IC50 (in general, the concentration at which inhibition is half-maximal) in data set [4] amounted to 313 ± 23.1 nM. Further, in data set [1], the λmax came out at 668 nm, the λem was 673 nm and the “Stokes Shift” value is listed as 5 nm. In data set [2], the “singlet oxygen quantum yield ΦΔ” value stood at 0.47.
`C=Cc1c(C)c2cc3nc(c4c5[nH]c(cc6nc(cc1[nH]2)C(C)=C6CC)c(C)c5C(=O)C4)[C@@H](CCC(=O)NCCCOCCOCCOCCCNC(=O)C[C@@H]1NC(=O)[C@@H](Cc2ccccc2)NC(=O)[C@H](CC(=O)O)NC(=O)CNC(=O)[C@H](CCCNC(=N)N)NC1=O)[C@@H]3C` [Pyro-MonoRGD] gave an IC50 in data set [4] of 951 ± 39.6 nM.
The compound `C=Cc1c(C)c2cc3nc(c4c5[nH]c(cc6nc(cc1[nH]2)C(C)=C6CC)c(C)c5C(=O)C4)[C@@H](CCC(=O)NC(COCCC(=O)NCCCOCCOCCOCCCNC(=O)C[C@@H]1NC(=O)[C@@H](Cc2ccccc2)NC(=O)[C@H](CC(=O)O)NC(=O)CNC(=O)[C@H](CCCNC(=N)N)NC1=O)(COCCC(=O)NCCCOCCOCCOCCCNC(=O)C[C@@H]1NC(=O)[C@@H](Cc2ccccc2)NC(=O)[C@H](CC(=O)O)NC(=O)CNC(=O)[C@H](CCCNC(=N)N)NC1=O)COCCC(=O)NCCCOCCOCCOCCCNC(=O)C[C@@H]1NC(=O)[C@@H](Cc2ccccc2)NC(=O)[C@H](CC(=O)O)NC(=O)CNC(=O)[C@H](CCCNC(=N)N)NC1=O)[C@@H]3C` (stereo partly drawn) [Pyro-TriRGD] registered a half-maximal inhibitory concentration (IC50) in data set [4] of 43.8 ± 8.2 nM. In addition, in data set [4] (ratio vs divalent Pyro-DiRGD), the “binding to integrin αvβ3, fold better than Pyro-DiRGD” value is given as 7 -fold. For the same compound, in data set [4] (ratio vs monovalent Pyro-MonoRGD), the “binding to integrin αvβ3, fold better than Pyro-MonoRGD” value is reported as 20 -fold. In data set [1], the λmax was 668 nm, the λem was determined as 673 nm and the “Stokes Shift” value is reported as 5 nm. For the same compound, the “singlet oxygen quantum yield ΦΔ” value in data set [2] was determined as 0.48. For the same compound, the “tumor accumulation, 2–6 h postinjection” value with U87-MG tumor [5] (50 nmol/mouse i.v., 2–6 h postinjection) was “excellent tumor accumulation at 2–6 h postinjection”. For the same compound, the “tumor enrichment, overall comparison” value in the data set on U87-MG tumor [5] (compared with the other two conjugates) is recorded as “had the best tumor enrichment compared with the other two conjugates”. Further, the “fluorescence intensity in excised tumor, 2 h postinjection” value in the data set with U87-MG tumor [6] was “the highest fluorescence intensity at the tumor site”.
As for cyclo(-RGDfK-), the “affinity to αvβ3 integrin receptor” value with αvβ3 integrin receptor is “only has a moderate affinity to the αvβ3 integrin receptor”.

These data come from PMC6413024, “Multimerization Increases Tumor Enrichment of Peptide–Photosensitizer Conjugates” (Molecules, 2019).
